In PubChem BioAssay (NCI):
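1) Cells in 96-well plates. 2) Compound, 48 h, 5 concentrations. 3) Linear interpolation between surrounding doses. 4) Unreached endpoint = highest concentration. TGI denotes the concentration required for complete inhibition of growth.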

Assays:
Assay in all cases: growth of human tumour cells (NCI), 48 h
[1] = test system: RXF 393 renal
[2] = test system: CAKI-1 renal
[3] = test system: SK-MEL-5 melanoma
[4] = test system: OVCAR-5 ovarian
[5] = test system: SF-295 CNS
[6] = test system: HCC-2998 colon
[7] = test system: HS 578T breast
[8] = test system: IGROV1 ovarian
[9] = test system: M14 melanoma
[10] = test system: HOP-62 NSCLC
[11] = test system: MDA-MB-231 breast
[12] = test system: NCI-H460 lung
[13] = test system: UACC-257 melanoma
[14] = test system: HOP-92 NSCLC
[15] = test system: SR leukemia
[16] = test system: NCI-H23 lung
[17] = test system: U251 CNS
[18] = test system: HCT-15 colon
[19] = test system: MDA-MB-435
[20] = test system: HL-60(TB) leukemia
[21] = test system: UACC-62 melanoma
[22] = test system: SK-OV-3 ovarian
[23] = test system: SK-MEL-28 melanoma
[24] = test system: EKVX NSCLC
[25] = test system: TK-10 renal
[26] = test system: MALME-3M melanoma
[27] = test system: SF-539 CNS
[28] = test system: SNB-19 CNS
[29] = test system: UO-31 renal
[30] = test system: A498 renal
[31] = test system: K-562 leukemia
[32] = test system: BT-549 breast
[33] = test system: MOLT-4 leukemia
[34] = test system: SF-268 CNS
[35] = test system: SNB-75 CNS
[36] = test system: COLO 205 colon
[37] = test system: KM12 colon
[38] = test system: SW-620 colon
[39] = test system: LOX IMVI melanoma
[40] = test system: NCI-H522 lung
[41] = test system: T-47D breast
[42] = test system: NCI/ADR-RES ovarian
[43] = test system: SK-MEL-2 melanoma
[44] = test system: MCF7 breast
[45] = test system: ACHN renal
[46] = test system: HCT-116 colon
[47] = test system: SN12C renal
[48] = test system: OVCAR-3 ovarian
[49] = test system: OVCAR-8 ovarian
[50] = test system: RPMI-8226 leukemia
[51] = test system: PC-3 prostate
[52] = test system: NCI-H226 lung
[53] = test system: MDA-N
[54] = test system: DU-145 prostate
[55] = test system: CCRF-CEM leukemia
[56] = test system: 786-0 renal
[57] = test system: A549 NSCLC
[58] = test system: HT29 colon
[59] = test system: OVCAR-4 ovarian

## CCOC(=O)NC(Nc1c(F)c(F)c(F)c(F)c1F)(C(F)(F)F)C(F)(F)F
[1]
  TGI: > 100 µM
[2]
  TGI: > 100 µM
[3]
  TGI: > 100 µM
[4]
  TGI: > 100 µM
[5]
  TGI: > 100 µM
[6]
  TGI: > 100 µM
[7]
  TGI: > 100 µM
[8]
  TGI: > 100 µM
[9]
  TGI: > 100 µM
[10]
  TGI: > 100 µM
[11]
  TGI: > 100 µM
[12]
  TGI: > 100 µM
[13]
  TGI: > 100 µM
[14]
  TGI: > 100 µM
[15]
  TGI: > 100 µM
[16]
  TGI: > 100 µM
[17]
  TGI: > 100 µM
[18]
  TGI: > 100 µM
[19]
  TGI: > 100 µM
[20]
  TGI: > 100 µM
[21]
  TGI: > 100 µM
[22]
  TGI: > 100 µM
[23]
  TGI: > 100 µM
[24]
  TGI: > 100 µM
[25]
  TGI: > 100 µM
[26]
  TGI: > 100 µM
[27]
  TGI: > 100 µM
[28]
  TGI: > 100 µM
[29]
  TGI: > 100 µM
[30]
  TGI: > 100 µM
[31]
  TGI: > 100 µM
[32]
  TGI: > 100 µM
[33]
  TGI: > 100 µM
[34]
  TGI: > 100 µM
[35]
  TGI: > 100 µM
[36]
  TGI: > 100 µM
[37]
  TGI: > 100 µM
[38]
  TGI: > 100 µM
[39]
  TGI: > 100 µM
[40]
  TGI: > 100 µM
[41]
  TGI: > 100 µM
[42]
  TGI: > 100 µM
[43]
  TGI: > 100 µM
[44]
  TGI: > 100 µM
[45]
  TGI: > 100 µM
[46]
  TGI: > 100 µM
[47]
  TGI: > 100 µM
[48]
  TGI: > 100 µM
[49]
  TGI: > 100 µM
[50]
  TGI: > 100 µM
[51]
  TGI: > 100 µM
[52]
  TGI: > 100 µM
[53]
  TGI: > 100 µM
[54]
  TGI: > 100 µM
[55]
  TGI: > 100 µM
[56]
  TGI: > 100 µM
[57]
  TGI: > 100 µM

## C[n+]1c(/C=C/c2ccc(O)c3ncccc23)[se]c2ccccc21
[1]
  TGI: 37.8 µM
[2]
  TGI: 26 µM
[3]
  TGI: 26.5 µM
[4]
  TGI: 40.4 µM
[5]
  TGI: 25.1 µM
[7]
  TGI: 63.5 µM
[8]
  TGI: > 37.8 µM
[9]
  TGI: 17.8 µM
[10]
  TGI: 19.1 µM
[11]
  TGI: 8.33 µM
[12]
  TGI: 9.34 µM
[13]
  TGI: 11.1 µM
[14]
  TGI: 22.3 µM
[15]
  TGI: > 21.9 µM
[16]
  TGI: 37.6 µM
[17]
  TGI: 16.3 µM
[18]
  TGI: 17.6 µM
[19]
  TGI: 28.4 µM
[20]
  TGI: 7.66 µM
[21]
  TGI: 18.3 µM
[58]
  TGI: 20.7 µM
[22]
  TGI: 23.4 µM
[23]
  TGI: 52.9 µM
[24]
  TGI: 28 µM
[25]
  TGI: 10.9 µM
[26]
  TGI: 20.3 µM
[27]
  TGI: 21.3 µM
[28]
  TGI: 51.3 µM
[29]
  TGI: 18.3 µM
[30]
  TGI: 30.5 µM
[31]
  TGI: 44.4 µM
[32]
  TGI: 35 µM
[33]
  TGI: > 22.7 µM
[34]
  TGI: 27.6 µM
[35]
  TGI: 34.8 µM
[36]
  TGI: 22.2 µM
[37]
  TGI: 25.2 µM
[38]
  TGI: > 100 µM
[39]
  TGI: 9.08 µM
[40]
  TGI: 24.8 µM
[41]
  TGI: > 41.8 µM
[42]
  TGI: 28.7 µM
[59]
  TGI: > 47 µM
[43]
  TGI: 18.3 µM
[44]
  TGI: 14.8 µM
[45]
  TGI: 8.54 µM
[46]
  TGI: 11.4 µM
[47]
  TGI: 16.1 µM
[48]
  TGI: 4.5 µM
[49]
  TGI: 29.8 µM
[50]
  TGI: 40.5 µM
[51]
  TGI: 12.7 µM
[52]
  TGI: 30.5 µM
[53]
  TGI: 25.4 µM
[54]
  TGI: 16.8 µM
[55]
  TGI: 4.22 µM
[56]
  TGI: 24.4 µM
[57]
  TGI: 42 µM

## C/C(=N\Nc1nc2ccccc2s1)c1ccc2ccccc2n1
[1]
  TGI: 73.3 µM
[2]
  TGI: > 100 µM
[3]
  TGI: > 100 µM
[4]
  TGI: > 100 µM
[5]
  TGI: > 100 µM
[7]
  TGI: > 100 µM
[8]
  TGI: 47.1 µM
[9]
  TGI: > 100 µM
[10]
  TGI: > 100 µM
[11]
  TGI: > 100 µM
[12]
  TGI: > 100 µM
[13]
  TGI: > 100 µM
[15]
  TGI: 5.88 µM
[16]
  TGI: > 100 µM
[17]
  TGI: > 100 µM
[18]
  TGI: > 100 µM
[19]
  TGI: > 100 µM
[20]
  TGI: 52.9 µM
[21]
  TGI: > 100 µM
[58]
  TGI: > 100 µM
[22]
  TGI: > 100 µM
[23]
  TGI: > 100 µM
[24]
  TGI: > 100 µM
[25]
  TGI: > 100 µM
[26]
  TGI: > 100 µM
[27]
  TGI: > 100 µM
[28]
  TGI: > 100 µM
[29]
  TGI: > 100 µM
[30]
  TGI: > 100 µM
[32]
  TGI: > 100 µM
[34]
  TGI: > 100 µM
[35]
  TGI: 97.2 µM
[36]
  TGI: > 100 µM
[37]
  TGI: > 100 µM
[38]
  TGI: > 100 µM
[39]
  TGI: > 100 µM
[40]
  TGI: > 100 µM
[41]
  TGI: 53.5 µM
[42]
  TGI: > 100 µM
[59]
  TGI: > 100 µM
[43]
  TGI: > 100 µM
[44]
  TGI: > 100 µM
[45]
  TGI: > 100 µM
[46]
  TGI: > 100 µM
[47]
  TGI: > 100 µM
[48]
  TGI: > 100 µM
[49]
  TGI: > 100 µM
[50]
  TGI: 45.3 µM
[51]
  TGI: > 100 µM
[53]
  TGI: > 100 µM
[54]
  TGI: > 100 µM
[55]
  TGI: 63.7 µM
[56]
  TGI: > 100 µM
[57]
  TGI: > 100 µM

## CN(C)CCCNC(=O)c1c(O)c2ccccc2n(C)c1=O
[1]
  TGI: > 100 µM
[2]
  TGI: > 100 µM
[3]
  TGI: > 100 µM
[4]
  TGI: > 100 µM
[5]
  TGI: > 100 µM
[6]
  TGI: > 100 µM
[7]
  TGI: > 100 µM
[8]
  TGI: > 100 µM
[10]
  TGI: > 100 µM
[11]
  TGI: > 100 µM
[12]
  TGI: > 100 µM
[13]
  TGI: > 100 µM
[14]
  TGI: 80.7 µM
[15]
  TGI: > 100 µM
[16]
  TGI: > 100 µM
[17]
  TGI: > 100 µM
[18]
  TGI: > 100 µM
[19]
  TGI: > 100 µM
[20]
  TGI: > 100 µM
[21]
  TGI: > 100 µM
[58]
  TGI: > 100 µM
[22]
  TGI: > 100 µM
[23]
  TGI: > 100 µM
[24]
  TGI: > 100 µM
[25]
  TGI: > 100 µM
[26]
  TGI: > 100 µM
[27]
  TGI: > 100 µM
[29]
  TGI: > 100 µM
[30]
  TGI: > 100 µM
[31]
  TGI: > 100 µM
[32]
  TGI: > 100 µM
[33]
  TGI: > 100 µM
[34]
  TGI: > 100 µM
[35]
  TGI: > 100 µM
[36]
  TGI: > 100 µM
[37]
  TGI: > 100 µM
[38]
  TGI: > 100 µM
[39]
  TGI: > 100 µM
[40]
  TGI: > 100 µM
[41]
  TGI: > 100 µM
[42]
  TGI: > 100 µM
[59]
  TGI: > 100 µM
[43]
  TGI: > 100 µM
[44]
  TGI: > 100 µM
[45]
  TGI: > 100 µM
[46]
  TGI: > 100 µM
[47]
  TGI: > 100 µM
[48]
  TGI: > 100 µM
[49]
  TGI: > 100 µM
[50]
  TGI: > 100 µM
[51]
  TGI: > 100 µM
[52]
  TGI: > 100 µM
[53]
  TGI: > 100 µM
[54]
  TGI: > 100 µM
[55]
  TGI: > 100 µM
[56]
  TGI: > 100 µM
[57]
  TGI: > 100 µM
